Experimental data from publication PMC12993615 (The journal of pain, 2024).

Assays:
Format in all cases: in vivo, male Sprague Dawley rats
[1] = test system: oxaliplatin-induced mechanical allodynia; experiment: 7-day treatment of established OIPN, paw withdrawal threshold; conditions: pregabalin 30 mg/kg PO on Days 7 and 14, P < .01
Description: (§1) Male Sprague Dawley rats (150–210 g) were housed in groups of 4 in intra-ventilated Perspex home cages. Humidity, temperature (21 ± 1 °C), and lighting (light-dark cycle of 12:12 hours) were controlled and maintained in the home cages, with food and water available ad libitum. Rats acclimatised to the home cages for at least 1 week. All experiments were carried out according to the Animals (Scientific Procedures) Act, 1986 (U.K. Government Home Office). The study was performed under the Home Office project licence number PP0847012. OIPN was established with a single dose of OXA (10 mg/kg, IP).
Body weight was monitored throughout the study, and terminal plasma and whole brain samples were taken for bioanalysis.
(§2) Tactile allodynia (primary outcome measure) was assessed using paw withdrawal threshold (PWT), a measure of pain sensitivity. PWT was evaluated using calibrated von-Frey monofilaments (Touch-Test Sensory Evaluator; Scientific Marketing Associates) applied to the plantar surface of the left hind paw. PWT was determined by increasing and decreasing stimulus intensity and estimated using Dixon’s up-down method.[38],[39]
(§3) To acquire baseline readings, pain behaviour was assessed on 3 consecutive days (Days −3, −2, −1). […] NPB expressed as a percentage change from HBL was calculated as follows (HBL-NPB)/HBL*100. […]

[2] = test system: oxaliplatin-induced mechanical allodynia; experiment: Prevention of OIPN, paw withdrawal threshold; conditions: pregabalin 30 mg/kg PO QD
Description: as §1
(§4) Pain measurements were made on Days 5/6 (when neuropathy has normally developed) and at the end of the study. […] Terminal plasma samples were taken for bioanalysis and proteomics (Somalogic). Brain regions involved in pain processing, that is, prefrontal cortex (PFC), periaqueductal grey (PAG), whole spinal cords (SC), and L4-L6 dorsal root ganglia, were collected for lipidomic and genomic (Genewiz, China) analyses.
as §2
To acquire baseline readings, pain behaviour was assessed on 3 consecutive days (Days −3, −2, −1). The mean of Day −2 and Day −1 was considered the healthy baseline (HBL) prior to OIPN induction. On Days 5 and 6 after OXA injection, thresholds were reassessed. The mean of Days 5 and 6 was considered the neuropathic baseline (NPB). Animals were then ranked and randomised (based on a Latin square design) to treatment groups according to the percentage change of the mean thresholds observed in the NPB compared to the HBL. NPB expressed as a percentage change from HBL was calculated as follows (HBL-NPB)/HBL*100. All behavioural assessment was done by an experimenter blinded to the identity of the treatment. Separate people were responsible for dosing and assessment/data analysis.

[3] = test system: oxaliplatin-induced thermal hyperalgesia; experiment: Prevention of OIPN, cold plate latency; conditions: pregabalin 30 mg/kg PO QD, P < .001
Description: as §1
Pain measurements were made on Days 5/6 (when neuropathy has normally developed) and at the end of the study. […] Terminal plasma samples were taken for bioanalysis and proteomics (Somalogic). […]
Thermal hyperalgesia was assessed using a cold plate (Bioseb, France) set at a fixed temperature of 15 °C. Latency to the first escape behaviour from the plate was measured indicating discomfort to the thermal stimulation. […]
as §3

[4] = Prevention of OIPN, body weight; conditions: pregabalin 30 mg/kg PO QD
Excerpt: as §4

CC(C)C[C@H](CN)CC(=O)O [pregabalin, Pregabalin, reference compound]
PWT scores versus vehicle [1]: significantly higher PWT scores than vehicle | PWT on Day 14 compared to HBL [2]: neither the ART26.12 nor the pregabalin groups showed significant allodynia | PWT on Day 5/6 compared to HBL ([2]; P < .05): significantly lower PWTs | cold plate latencies on Day 14 versus vehicle [3]: significantly higher cold plate latencies than the vehicle group | body weight in first 4 days post-administration of OXA [4]: weight loss
